Our source for the Km and IC50 values is article PMC3817851, “Enzyme activity effects of N-terminal His-tag attached to catalytic sub-unit of phosphoinositide-3-kinase” (Bioscience Reports, 2013).

Format in all cases: biochemical
The target in test [1] is T1, p110α (PI 3-Kα, p110α/p85α) (Homo sapiens, UniProt P42336).
T1 construct: gene PIK3CA; full-length p110α with N-His6-rTEV tag (tag removed by rTEV) co-expressed with full-length p85α; baculovirus/Sf9; IMAC, MonoQ; heterodimer; with Phosphatidylinositol 3-kinase regulatory subunit alpha
T1 sequence (P42336 whole entry): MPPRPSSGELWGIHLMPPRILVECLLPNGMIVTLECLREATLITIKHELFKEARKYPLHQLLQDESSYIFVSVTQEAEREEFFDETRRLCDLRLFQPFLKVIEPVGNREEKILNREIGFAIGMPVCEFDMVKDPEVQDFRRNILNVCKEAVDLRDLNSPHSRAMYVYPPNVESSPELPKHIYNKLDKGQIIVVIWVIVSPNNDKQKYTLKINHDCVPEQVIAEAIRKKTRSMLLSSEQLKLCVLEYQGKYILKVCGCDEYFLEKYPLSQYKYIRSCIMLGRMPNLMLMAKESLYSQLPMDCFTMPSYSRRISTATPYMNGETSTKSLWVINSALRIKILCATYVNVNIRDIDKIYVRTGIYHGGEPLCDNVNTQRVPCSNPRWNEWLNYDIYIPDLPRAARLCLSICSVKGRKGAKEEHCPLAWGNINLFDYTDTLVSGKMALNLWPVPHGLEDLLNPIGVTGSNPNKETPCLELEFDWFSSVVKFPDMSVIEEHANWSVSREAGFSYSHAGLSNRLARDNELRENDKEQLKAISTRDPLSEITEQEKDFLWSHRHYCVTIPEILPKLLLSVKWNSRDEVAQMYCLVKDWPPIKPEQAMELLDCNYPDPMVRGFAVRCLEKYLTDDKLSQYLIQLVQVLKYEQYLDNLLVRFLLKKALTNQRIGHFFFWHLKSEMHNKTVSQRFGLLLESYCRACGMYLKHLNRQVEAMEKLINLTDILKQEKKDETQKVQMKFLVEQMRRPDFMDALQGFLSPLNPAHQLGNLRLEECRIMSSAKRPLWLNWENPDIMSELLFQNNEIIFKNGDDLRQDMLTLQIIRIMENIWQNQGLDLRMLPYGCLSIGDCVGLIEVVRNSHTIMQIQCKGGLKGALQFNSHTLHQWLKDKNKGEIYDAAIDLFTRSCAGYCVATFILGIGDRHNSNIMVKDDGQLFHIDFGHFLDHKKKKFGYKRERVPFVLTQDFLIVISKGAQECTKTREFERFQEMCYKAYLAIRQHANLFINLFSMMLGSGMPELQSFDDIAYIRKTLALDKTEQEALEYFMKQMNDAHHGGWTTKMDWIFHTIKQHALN
T1 sequence (P27986 2-724 partner): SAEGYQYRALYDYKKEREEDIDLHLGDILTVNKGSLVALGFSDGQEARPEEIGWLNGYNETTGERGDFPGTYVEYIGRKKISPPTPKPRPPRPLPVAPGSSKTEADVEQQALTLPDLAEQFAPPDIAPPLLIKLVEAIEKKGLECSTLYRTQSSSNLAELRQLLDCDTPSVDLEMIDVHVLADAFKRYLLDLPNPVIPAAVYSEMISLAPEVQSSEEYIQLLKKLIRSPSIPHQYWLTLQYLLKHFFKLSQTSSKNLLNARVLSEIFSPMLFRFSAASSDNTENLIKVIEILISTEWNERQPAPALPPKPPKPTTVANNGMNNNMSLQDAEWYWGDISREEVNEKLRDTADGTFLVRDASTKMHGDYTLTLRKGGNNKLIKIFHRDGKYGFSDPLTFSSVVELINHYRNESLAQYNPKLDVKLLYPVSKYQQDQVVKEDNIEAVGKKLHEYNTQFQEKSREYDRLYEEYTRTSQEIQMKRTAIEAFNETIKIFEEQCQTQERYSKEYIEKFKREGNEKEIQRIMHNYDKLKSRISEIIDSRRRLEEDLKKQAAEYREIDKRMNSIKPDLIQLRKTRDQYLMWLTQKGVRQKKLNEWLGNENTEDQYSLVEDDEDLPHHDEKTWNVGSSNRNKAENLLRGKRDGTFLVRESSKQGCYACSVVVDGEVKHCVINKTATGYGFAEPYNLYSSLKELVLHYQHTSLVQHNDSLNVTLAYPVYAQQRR
The test is described as follows: HTRF kinetics, […] ATP. As to conditions: PI([…])P2 co-substrate, His-tag removed.

Test [2] has as its target T2, p110γ (PI 3-Kγ) (Homo sapiens, UniProt P48736).
T2 construct: gene PIK3CG; catalytic subunit only, N-His6-rTEV tag (tag removed by rTEV); baculovirus/Sf9
The test is described as follows: HTRF kinetics, […] ATP. Conditions: PI([…])P2 co-substrate, His-tag removed. Background: In TR-FRET formats the signal depends on donor and acceptor labels being close together.

Test [3] deals with T3, p110δ (PI 3-Kδ, p110δ/p85α) (Homo sapiens, UniProt O00329).
T3 construct: gene PIK3CD; full-length p110δ with N-His6-rTEV tag (tag removed by rTEV) co-expressed with full-length p85α; baculovirus/Sf9; IMAC, MonoQ; heterodimer; with Phosphatidylinositol 3-kinase regulatory subunit alpha
T3 sequence (O00329 whole entry): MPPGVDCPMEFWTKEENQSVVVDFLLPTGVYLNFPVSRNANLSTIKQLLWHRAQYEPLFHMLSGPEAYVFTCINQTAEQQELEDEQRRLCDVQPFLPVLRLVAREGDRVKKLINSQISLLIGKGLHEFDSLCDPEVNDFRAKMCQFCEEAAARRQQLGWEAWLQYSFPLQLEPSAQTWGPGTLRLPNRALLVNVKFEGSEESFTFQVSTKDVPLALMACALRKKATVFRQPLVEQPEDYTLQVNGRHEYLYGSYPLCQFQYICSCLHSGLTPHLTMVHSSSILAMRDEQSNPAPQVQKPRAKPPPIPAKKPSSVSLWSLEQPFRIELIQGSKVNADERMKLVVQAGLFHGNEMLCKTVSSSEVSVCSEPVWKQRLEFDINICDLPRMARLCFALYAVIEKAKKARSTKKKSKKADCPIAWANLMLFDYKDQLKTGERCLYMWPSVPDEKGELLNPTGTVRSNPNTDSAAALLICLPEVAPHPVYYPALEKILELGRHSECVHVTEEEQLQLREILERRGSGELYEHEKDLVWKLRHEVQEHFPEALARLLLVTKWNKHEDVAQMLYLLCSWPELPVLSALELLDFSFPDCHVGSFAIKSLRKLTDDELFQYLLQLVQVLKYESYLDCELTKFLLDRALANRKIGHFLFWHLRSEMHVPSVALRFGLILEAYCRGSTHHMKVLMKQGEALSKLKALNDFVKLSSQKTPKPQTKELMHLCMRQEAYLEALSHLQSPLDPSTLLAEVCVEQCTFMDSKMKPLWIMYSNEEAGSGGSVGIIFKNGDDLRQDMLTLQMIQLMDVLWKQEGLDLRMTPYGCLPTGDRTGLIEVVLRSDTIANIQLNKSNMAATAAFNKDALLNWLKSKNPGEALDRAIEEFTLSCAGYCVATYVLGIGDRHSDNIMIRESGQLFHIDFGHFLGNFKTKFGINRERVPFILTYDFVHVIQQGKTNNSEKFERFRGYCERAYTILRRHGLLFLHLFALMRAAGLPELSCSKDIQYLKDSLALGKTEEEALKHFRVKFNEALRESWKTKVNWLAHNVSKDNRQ
T3 sequence (P27986 2-724 partner): as the sequence (P27986 2-724 partner) above
The test is described as follows: HTRF kinetics, […] ATP. Conditions: PI([…])P2 co-substrate, His-tag removed.

Test [4] has as its target T4, p110β (PI 3-Kβ, p110β/p85α) (Homo sapiens, UniProt P42338).
T4 construct: gene PIK3CB; full-length p110β with N-His6-rTEV tag (tag removed by rTEV) co-expressed with full-length p85α; baculovirus/Sf9; IMAC, MonoQ; heterodimer; with Phosphatidylinositol 3-kinase regulatory subunit alpha
The test is described as follows: HTRF kinetics, […] ATP. Conditions: PI([…])P2 co-substrate, His-tag removed.

Test [5] concerns the target T4, p110β (PI 3-Kβ, p110β/p85α). Nature of the test: HTRF lipid kinase assay. Conditions: […] ATP, PI([…])P2 substrate, His-tag removed.
The target in test [6] is T2, p110γ (PI 3-Kγ). Nature of the test: HTRF lipid kinase assay.

Molecules are shown by their SMILES.

T2 sequence (P48736 whole entry): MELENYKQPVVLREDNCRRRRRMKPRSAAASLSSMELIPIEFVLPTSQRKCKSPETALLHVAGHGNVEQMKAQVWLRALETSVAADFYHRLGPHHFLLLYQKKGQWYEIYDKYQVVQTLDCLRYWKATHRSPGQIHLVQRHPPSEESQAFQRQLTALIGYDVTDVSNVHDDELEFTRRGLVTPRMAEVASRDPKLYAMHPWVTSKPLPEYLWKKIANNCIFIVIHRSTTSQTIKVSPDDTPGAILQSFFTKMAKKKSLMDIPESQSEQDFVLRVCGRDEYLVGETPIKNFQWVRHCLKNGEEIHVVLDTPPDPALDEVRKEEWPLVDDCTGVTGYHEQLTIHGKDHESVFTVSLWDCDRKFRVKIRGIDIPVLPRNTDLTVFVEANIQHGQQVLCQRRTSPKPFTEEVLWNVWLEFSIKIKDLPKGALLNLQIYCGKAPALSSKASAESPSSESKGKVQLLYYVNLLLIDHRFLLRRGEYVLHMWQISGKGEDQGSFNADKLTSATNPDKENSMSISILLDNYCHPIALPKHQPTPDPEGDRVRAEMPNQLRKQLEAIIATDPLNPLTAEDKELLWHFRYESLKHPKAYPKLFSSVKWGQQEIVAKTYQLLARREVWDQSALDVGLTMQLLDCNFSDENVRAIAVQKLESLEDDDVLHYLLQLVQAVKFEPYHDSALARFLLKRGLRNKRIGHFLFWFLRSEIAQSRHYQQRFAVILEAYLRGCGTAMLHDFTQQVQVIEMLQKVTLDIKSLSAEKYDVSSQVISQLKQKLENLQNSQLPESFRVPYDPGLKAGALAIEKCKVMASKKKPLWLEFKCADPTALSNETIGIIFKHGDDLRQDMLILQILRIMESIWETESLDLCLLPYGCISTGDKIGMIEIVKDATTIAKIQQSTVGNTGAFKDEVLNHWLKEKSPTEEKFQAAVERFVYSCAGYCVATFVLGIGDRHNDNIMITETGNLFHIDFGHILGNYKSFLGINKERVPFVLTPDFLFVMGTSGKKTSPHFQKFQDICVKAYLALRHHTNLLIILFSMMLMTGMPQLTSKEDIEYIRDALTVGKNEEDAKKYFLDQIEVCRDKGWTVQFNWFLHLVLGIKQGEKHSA
T4 sequence (P42338 whole entry): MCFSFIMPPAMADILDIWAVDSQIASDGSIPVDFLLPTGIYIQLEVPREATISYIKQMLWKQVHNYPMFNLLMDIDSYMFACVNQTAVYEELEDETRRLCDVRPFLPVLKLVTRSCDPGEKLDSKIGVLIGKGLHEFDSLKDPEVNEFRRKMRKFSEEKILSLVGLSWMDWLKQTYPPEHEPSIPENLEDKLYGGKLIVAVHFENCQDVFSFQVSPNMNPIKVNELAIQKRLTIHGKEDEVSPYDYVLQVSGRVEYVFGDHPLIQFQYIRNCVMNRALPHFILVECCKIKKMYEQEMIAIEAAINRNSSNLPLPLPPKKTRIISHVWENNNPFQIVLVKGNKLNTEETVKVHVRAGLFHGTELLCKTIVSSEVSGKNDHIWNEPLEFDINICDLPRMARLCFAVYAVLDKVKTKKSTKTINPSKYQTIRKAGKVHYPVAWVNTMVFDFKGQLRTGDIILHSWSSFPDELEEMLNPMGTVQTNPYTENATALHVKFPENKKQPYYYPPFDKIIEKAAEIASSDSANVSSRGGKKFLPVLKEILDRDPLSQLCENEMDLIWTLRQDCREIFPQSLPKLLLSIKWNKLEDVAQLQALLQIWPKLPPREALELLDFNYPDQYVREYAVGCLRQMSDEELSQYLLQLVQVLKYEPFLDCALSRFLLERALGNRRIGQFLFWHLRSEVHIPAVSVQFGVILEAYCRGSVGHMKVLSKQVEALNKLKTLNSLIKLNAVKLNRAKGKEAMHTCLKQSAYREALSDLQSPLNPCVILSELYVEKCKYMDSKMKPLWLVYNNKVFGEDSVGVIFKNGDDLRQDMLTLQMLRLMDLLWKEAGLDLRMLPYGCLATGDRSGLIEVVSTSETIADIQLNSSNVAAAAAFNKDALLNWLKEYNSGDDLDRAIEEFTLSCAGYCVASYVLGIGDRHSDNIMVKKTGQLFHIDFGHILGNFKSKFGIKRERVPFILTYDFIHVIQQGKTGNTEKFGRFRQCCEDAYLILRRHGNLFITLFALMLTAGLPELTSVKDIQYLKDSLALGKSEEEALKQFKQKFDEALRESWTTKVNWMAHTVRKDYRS
T4 sequence (P27986 2-724 partner): as the sequence (P27986 2-724 partner) above

`Nc1ncnc2c1ncn2[C@@H]1O[C@H](COP(=O)(O)OP(=O)(O)OP(=O)(O)O)[C@@H](O)[C@H]1O` [ATP]: the Km result (in test [1]; at p110γ (PI 3-Kγ) [2]; in test [3]; in test [4]) was “(B) Km for ATP in μM” each time.

Usually IC50 stands for the point on the concentration scale where inhibition reaches its midpoint. With `Cc1cc([C@H](C)Nc2ccccc2)c2oc(N3CCOCC3)cc(=O)c2c1` [PIK108], the midpoint of inhibition in test [5], the IC50, lay at 14 nM.

Compound `Cc1ccc([N+](=O)[O-])cc1S(=O)(=O)N(C)/N=C/c1cnc2ccc(Br)cn12` [PIK-75] registered an IC50 against p110γ (PI 3-Kγ) [6] of 26 nM.
